Key:
Assay type in all cases: cell-based
[1] = tested on: BON-1; assay: Cell viability/CTG assay, BON-1; settings: BON-1 cell line; CTG assay, 72 hr; values approximate; read-out: IC (μM, CTG assay: 72 hr)
Procedure: (§1) FIGS. 3A and 3B are a set of graphs showing the cell viability/CTG assays for NEN cell lines treated with BCL-2/xL inhibitor Compound No. 2 (an active metabolite of Compound No. 1)(FIG. 3A) or ABT-263 (FIG. 3B).
(§2) The activity of Compound No. 2 (an active metabolite of Compound No. 1) in overcoming apoptotic blockade in neuroendocrine neoplasm was tested, alone or in comparison with ABT-263.

[2] = tested on: QGP-1; assay: Cell viability/CTG assay, QGP-1; settings: QGP-1 cell line; CTG assay, 72 hr; values approximate; read-out: IC (μM, CTG assay: 72 hr)
Procedure: as §1, §2

[3] = tested on: NCI-H727; assay: Cell viability/CTG assay, NCI-H727; settings: Homo sapiens; NCI-H727 cell line; CTG assay, 72 hr; values approximate; read-out: IC (μM, CTG assay: 72 hr)
Procedure: as §1, §2

[4] = tested on: NCI-H460; assay: Cell viability/CTG assay, NCI-H460; settings: Homo sapiens; NCI-H460 cell line; CTG assay, 72 hr; values approximate; read-out: IC (μM, CTG assay: 72 hr)
Procedure: as §1, §2

[5] = tested on: β-TC3; assay: Cell viability/CTG assay, β-TC3; settings: β-TC3 cell line; CTG assay, 72 hr; values approximate; read-out: IC (μM, CTG assay: 72 hr)
Procedure: as §1, §2

[6] = tested on: MIN-6; assay: Cell viability/CTG assay, MIN-6; settings: Mus musculus, MIN6; MIN-6 cell line; CTG assay, 72 hr; values approximate; read-out: IC (μM, CTG assay: 72 hr)
Procedure: as §1, §2

[7] = tested on: NEN cell lines; assay: NEN cell viability (general statement); settings: FIGS. 3A and 3B
Procedure: as §1, §2

[8] = biological target: T1, BCL-xL:BIM complex (Homo sapiens, UniProt Q07817); assay: BCL-2 family member complex intensity: BCL-xL:BIM; settings: BON-1 and QGP-1 treated with BCL-2/xL inhibitors; FIG. 4A
T1 construct: High expression of BCL-xL protein was found in NEN cell lines; endogenous in cells; host or cells: BON-1 and QGP-1 (printed QGP-I) NEN cell lines
T1 sequence (Q07817 whole entry, one chain of several): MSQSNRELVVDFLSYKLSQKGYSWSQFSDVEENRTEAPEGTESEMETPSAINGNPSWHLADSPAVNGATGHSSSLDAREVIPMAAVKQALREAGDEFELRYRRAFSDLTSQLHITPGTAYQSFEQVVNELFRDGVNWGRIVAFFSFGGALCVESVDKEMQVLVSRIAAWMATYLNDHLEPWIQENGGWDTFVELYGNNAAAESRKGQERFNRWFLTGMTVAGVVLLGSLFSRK
Source text: (§3) FIGS. 4A-4C are a set of graphs showing the BCL-2 family member complex intensity in BON-1 and QGP-I treated with BCL-2/xL inhibitors (FIG. 4A: BCL-xL:BIM complex, FIG. 4B: BCL-xL:PUMA complex; and FIG. 4C: BAX:BAK protein complexes).

[9] = tested on: BAX:BAK complex; assay: BCL-2 family member complex intensity: BAX:BAK; settings: BON-1 and QGP-1 treated with BCL-2/xL inhibitors; FIG. 4C
Source text: as §3

Row | IC50 [3] [µM] | IC50 [4] [µM] | BCL-xL:BIM complex [8] | SMILES | IC50 [1] [µM] | IC50 [2] [µM] | IC50 [5] [µM] | IC50 [6] [µM] | NEN cell viability [7] | BAX:BAK complex [9]
1 | 3.74 | 71 | – | CC1(C)CCC(c2ccc(Cl)cc2)=C(CN2CCN(c3ccc(C(=O)NS(=O)(=O)c4ccc(N[C@H](CCN5CCOCC5)CSc5ccccc5)c(S(=O)(=O)C(F)(F)F)c4)cc3)CC2)C1 [ABT-263, 4-(4-{[2-(4-Chlorophenyl)-5,5-dimethyl-1-cyclohexen-1-yl]methyl}-1-piperazinyl)-N-[(4-{[(R)-4-(4-morpholinyl)-1-(phenylsulfanyl)-2-butanyl]amino}-3-[(trifluoromethyl)sulfonyl]phenyl)-sulfonyl]benzamide, reference compound] | 0.91 | ≥ 10 | 1.12 | 5.56 | – | –
2 | 3.79 | ≥ 10 | decreases BCL-xL:BIM complex | Cc1c(S(C)(=O)=O)c(-c2cc(F)cc(N3CCN(c4ccc(NS(=O)(=O)c5ccc(N[C@H](CCN6CCC(C(=O)O)CC6)CSc6ccccc6)c(S(=O)(=O)C(F)(F)F)c5)cc4)CC3)c2)c(-c2ccc(Cl)cc2)n1C(C)C [Compound No. 2] | 0.43 | 3.78 | 0.55 | 2.07 | inhibits the NEN cell viability | increases BAX:BAK complex

Source: US20220296557A1, “COMBINATIONS OF BCL-2/BCL-XL INHIBITORS AND RELATED USES” (Ascentage Pharma (Suzhou) Co., Ltd., priority 2020, published 2022)
